Test results: PMC5537305, “Photo-enhanced Aqueous Solubilization of an Azo-compound” (Scientific Reports, 2017)
“And” between values parts separate entries of the source, which are not always exact repeats. Equal entries are not always repeated. Where two headings read alike, the source gives them in different places.

Legend:
[1] = Aqueous solubilization in 1/15 M phosphate buffer (pH 7.4) under UV, visible light or dark, with cis ratio in solution by HPLC; type: physicochemical; settings: for increase of aqueous solubilization, UV irradiation vs dark: mercury lamp 0.5 mW/cm2; for Aqueous solubilized 3: successive irradiations
Procedure: Table S3. Cis ratio and aqueous solubilization of 3 under UV irradiation, under visible light irradiation, and in […]
Compound 3 was shaken at 37 °C under UV irradiation, under visible light irradiation, and in the dark. UV irradiation was performed with a mercury lamp (0.5 mW/cm2). Cis ratio in the aqueous solution was evaluated from the peak areas in HPLC immediately after filtration.
Table S4. Aqueous solubilization and cis ratio of 3 under irradiation at various wavelengths through filters of […]
Illumination was performed with a xenon lamp using repeated cycles of irradiation and shaking (5000 flashes, then shaking for 10 sec) through filters of various bandwidths at room temperature (20-22 °C) for 1 h. The cis ratio in the aqueous solution was evaluated by HPLC immediately after filtration, based on peak area.
Table S5. Aqueous solubilization of 3 under UV irradiation at various intensity levels.
Sample irradiation was conducted using 365 nm LED light (max light intensity: 290 mW/cm2) at 37 °C for 1 […]
Sample irradiations were conducted with the white light through a filter cutting off wavelengths below 560 nm, or with 365 nm LED light (344 mW/cm2) at 37 °C for 1 h.
Table S7. Aqueous dissolution of UV-irradiated crystals of 3 measured in the dark, and the cis ratio contained […]
Crystals of 3 were irradiated with 365 nm LED light (344 mW/cm2) at 37 °C for 3 h.
The UV-irradiated crystals and unirradiated crystals were each shaken in phosphate buffer in the dark at 37 °C for 1 h.
Physicochemical properties […]
Compound 3 (about 0.2 mg) was ground and taken up in 1/15 M phosphate buffer (pH 7.4, 1.0 mL) in a 10 mL glass tube. The suspension was incubated under ultrasound irradiation for 10 min, and shaken in a temperature controllable incubator located in a dark room for the indicated time at the indicated temperature.
With shaking on a plate shaker, a sample was irradiated with a 365 nm mercury lamp (4 W, UVP compact […]
white LED light (5 W, Nikki Trading Corp., NLSS05BM, 68 and 54 mW/cm2 at 450 and 540 nm, respectively) through a filter cutting off wavelengths below 560 nm (Atto Corp. YA-3). Irradiation was done from the top of the sample glass tube. Then, the suspension was filtered through a Millipore Millex-LG (0.20 […]
For irradiation at various UV wavelengths, 3 (about 0.1 mg) was ground and taken up in 1/15 M phosphate buffer (pH 7.4, 0.2 mL) in a well of a 96-well white plate. Illumination over a range of wavelength from 355-540 nm was performed using a plate reader EnVision equipped with a xenon flash lamp (35 W, 500 Hz), with excitation filters of appropriate bandwidths.

[2] = Photoinduced cis-trans isomerization of 3 in water containing 1% MeOH (HPLC peak areas); type: physicochemical
Procedure: To confirm the potential usefulness of this strategy for improving aqueous solubility, we focused on kinase inhibitor 3 [31] (Fig. S2) as representative of pharmaceutical compounds, because the 518 human protein kinases include important drug targets, and the molecular structures of many kinase inhibitors tend to be rather similar. […]
Table S2. Photoinduced isomerization of 3
Light Time (min) cis ratio (%) trans ratio (%)
Compound 3 (10 µM) in a mixture of water and MeOH (1%) was successively exposed to white light and to a 365 nm mercury lamp (0.5 mW/cm2). The cis-trans ratio was calculated from the peak areas in HPLC. […]
Physicochemical properties
The UV-visible absorption spectra of the cis and trans isomers were determined on a UV-visible spectrometer (Shimano, UV-2400PC). Sample solutions in quartz cells were irradiated with a 365 nm mercury lamp (4 W, UVP compact UV lamp, 0.5 mW/cm2), LED UV light (3.3 W, CCS HLV-24UV365-4WNRBTNJ, 344 mW/cm2), or white LED light (5 W, Nikki Trading Corp., NLSS05BM, 68 and 54 mW/cm2 at 450 and 540 nm, respectively) for the indicated times at room temperature. […]

[3] = 10 µM in water/MeOH (1%), step 1: visible (white light) 10 min
[4] = step 2: UV 365 nm mercury lamp 0.5 mW/cm2, 10 min
[5] = step 4: UV 10 min (second UV exposure)

What does the source list for `CC(C)n1nc(/N=N/c2ccccc2)c2c(N)ncnc21` [Compound 3]?
cis ratio in solution after UV irradiation ([1]; 365 nm LED, roughly constant, independent of light intensity): ~90%; increase of aqueous solubilization, UV irradiation vs dark ([1]; 0.5 h, 37 °C): 3.5 fold; increase of aqueous solubilization, UV irradiation vs dark ([1]; 1 h, 37 °C): 5.0 fold; increase of aqueous solubilization, UV irradiation vs dark ([1]; 5 h, 37 °C): 7.1 fold and 7 fold; cis ratio ([1]; Dark, 37 °C, shake time 0.5 h): 6%; cis ratio ([1]; Dark, 37 °C, shake time 1 h): 4%; cis ratio ([1]; Dark, 37 °C, shake time 5 h): 7%; cis ratio ([1]; UV light (mercury lamp 0.5 mW/cm2), 37 °C, shake time 0.5 h): 77%; cis ratio ([1]; UV light (mercury lamp 0.5 mW/cm2), 37 °C, shake time 1 h): 80%; cis ratio ([1]; UV light (mercury lamp 0.5 mW/cm2), 37 °C, shake time 3 h): 80%; cis ratio ([1]; UV light (mercury lamp 0.5 mW/cm2), 37 °C, shake time 5 h): 75%; cis ratio ([1]; UV light (mercury lamp 0.5 mW/cm2), 37 °C, shake time 8 h): 87%; cis ratio ([1]; Visible light, 37 °C, shake time 1 h): 25%; cis ratio ([1]; Visible light, 37 °C, shake time 5 h): 25%; cis ratio ([1]; light intensity 0.00 mW/cm2, 365 nm LED, 37 °C, 1 h): 4%; cis ratio ([1]; light intensity 4.56 mW/cm2, 365 nm LED, 37 °C, 1 h): 89%; cis ratio ([1]; light intensity 29.0 mW/cm2, 365 nm LED, 37 °C, 1 h): 92%; cis ratio ([1]; light intensity 290 mW/cm2, 365 nm LED, 37 °C, 1 h): 90%; increase of aqueous solubilization compared with the dark condition ([1]; maximum irradiation intensity 290 mW/cm2, 365 nm LED, 37 °C, 1 h): 23 fold; increase of aqueous solubilization by exposure to UV light ([1]; phosphate buffer, compared to without irradiation, up to): up to 20 fold; solubility at 1 h ([1]; phosphate buffer, pH 7.4, 46 °C, after 1 h, read-out: aqueous solubility): 3.5 µg/mL; solubility at 24 h ([1]; phosphate buffer, pH 7.4, 46 °C, after 24 h): 3.2 µg/mL; solubility at 1 h ([1]; phosphate buffer, pH 7.4, Dark, 37 °C, shake time 1 h, read-out: Solubility): 3 µg/mL; solubility at 0.5 h ([1]; phosphate buffer, pH 7.4, UV light (mercury lamp 0.5 mW/cm2), 37 °C, shake time 0.5 h, read-out: Solubilized 3): 11.1 µg/mL; solubility at 1 h ([1]; phosphate buffer, pH 7.4, UV light (mercury lamp 0.5 mW/cm2), 37 °C, shake time 1 h, read-out: Solubilized 3): 14.9 µg/mL; solubility at 3 h ([1]; phosphate buffer, pH 7.4, UV light (mercury lamp 0.5 mW/cm2), 37 °C, shake time 3 h, read-out: Solubilized 3): 18.4 µg/mL; solubility at 5 h ([1]; phosphate buffer, pH 7.4, UV light (mercury lamp 0.5 mW/cm2), 37 °C, shake time 5 h, read-out: Solubilized 3): 24.7 µg/mL; solubility at 8 h ([1]; phosphate buffer, pH 7.4, UV light (mercury lamp 0.5 mW/cm2), 37 °C, shake time 8 h, read-out: Solubilized 3): 24.2 µg/mL; solubility at 1 h ([1]; phosphate buffer, pH 7.4, Visible light, 37 °C, shake time 1 h, read-out: Solubilized 3): 4.6 µg/mL; solubility at 5 h ([1]; phosphate buffer, pH 7.4, Visible light, 37 °C, shake time 5 h, read-out: Solubilized 3): 5.1 µg/mL; solubility at 1 h ([1]; phosphate buffer, pH 7.4, light intensity 4.56 mW/cm2, 365 nm LED, 37 °C, 1 h, read-out: Aqueous solubilized 3): 12.3 µg/mL; solubility at 1 h ([1]; phosphate buffer, pH 7.4, light intensity 29.0 mW/cm2, 365 nm LED, 37 °C, 1 h, read-out: Aqueous solubilized 3): 36.2 µg/mL; solubility at 1 h ([1]; phosphate buffer, pH 7.4, light intensity 290 mW/cm2, 365 nm LED, 37 °C, 1 h, read-out: Aqueous solubilized 3): 69.6 µg/mL; solubility ([1]; phosphate buffer, pH 7.4, phosphate buffer, in the dark, after 0.5, 1 and 5 h at 37 °C, read-out: aqueous solubility): ~3 µg/mL; solubility ([1]; phosphate buffer, pH 7.4, white-light irradiation, after 1 and 5 h, 37 °C, read-out: solubilization): ~5 µg/mL; Aqueous solubilized 3 ([1]; step 1: visible (white light, filter cutting off below 560 nm), 37 °C, 1 h): 1.0 fold; Aqueous solubilized 3 ([1]; step 2: UV 365 nm LED 344 mW/cm2, 37 °C, 1 h): 35.5 fold; Aqueous solubilized 3 ([1]; step 3: visible, 37 °C, 1 h): 2.3 fold; Aqueous solubilized 3 ([1]; step 4: UV 365 nm LED 344 mW/cm2, 37 °C, 1 h): 37.9 fold; Aqueous solubilized 3 ([1]; step 5: visible, 37 °C, 1 h): 2.9 fold; cis ratio [2, 3]: 20.3%; trans ratio [2, 3]: 79.7%; cis ratio [2, 4]: 84.8%; trans ratio [2, 4]: 15.2%; cis ratio ([2]; step 3: visible 12 min): 18.3%; trans ratio ([2]; step 3: visible 12 min): 81.7%; cis ratio [2, 5]: 86.9%; trans ratio [2, 5]: 13.1%; cis ratio ([2]; step 5: visible 20 min): 19.4%; trans ratio ([2]; step 5: visible 20 min): 80.6%
